Our source for the IC50 values is patent publication US12581252B2, “Substituted pyrrolo[3,4-b]pyridines as PI3K-α inhibitors” (Relay Therapeutics, Inc., priority 2020, dated 2026).

A value given as a limit tells only on which side of the number the result lay.

H1047R PIK3CA enzyme, sequence (P42336 whole entry H1047R): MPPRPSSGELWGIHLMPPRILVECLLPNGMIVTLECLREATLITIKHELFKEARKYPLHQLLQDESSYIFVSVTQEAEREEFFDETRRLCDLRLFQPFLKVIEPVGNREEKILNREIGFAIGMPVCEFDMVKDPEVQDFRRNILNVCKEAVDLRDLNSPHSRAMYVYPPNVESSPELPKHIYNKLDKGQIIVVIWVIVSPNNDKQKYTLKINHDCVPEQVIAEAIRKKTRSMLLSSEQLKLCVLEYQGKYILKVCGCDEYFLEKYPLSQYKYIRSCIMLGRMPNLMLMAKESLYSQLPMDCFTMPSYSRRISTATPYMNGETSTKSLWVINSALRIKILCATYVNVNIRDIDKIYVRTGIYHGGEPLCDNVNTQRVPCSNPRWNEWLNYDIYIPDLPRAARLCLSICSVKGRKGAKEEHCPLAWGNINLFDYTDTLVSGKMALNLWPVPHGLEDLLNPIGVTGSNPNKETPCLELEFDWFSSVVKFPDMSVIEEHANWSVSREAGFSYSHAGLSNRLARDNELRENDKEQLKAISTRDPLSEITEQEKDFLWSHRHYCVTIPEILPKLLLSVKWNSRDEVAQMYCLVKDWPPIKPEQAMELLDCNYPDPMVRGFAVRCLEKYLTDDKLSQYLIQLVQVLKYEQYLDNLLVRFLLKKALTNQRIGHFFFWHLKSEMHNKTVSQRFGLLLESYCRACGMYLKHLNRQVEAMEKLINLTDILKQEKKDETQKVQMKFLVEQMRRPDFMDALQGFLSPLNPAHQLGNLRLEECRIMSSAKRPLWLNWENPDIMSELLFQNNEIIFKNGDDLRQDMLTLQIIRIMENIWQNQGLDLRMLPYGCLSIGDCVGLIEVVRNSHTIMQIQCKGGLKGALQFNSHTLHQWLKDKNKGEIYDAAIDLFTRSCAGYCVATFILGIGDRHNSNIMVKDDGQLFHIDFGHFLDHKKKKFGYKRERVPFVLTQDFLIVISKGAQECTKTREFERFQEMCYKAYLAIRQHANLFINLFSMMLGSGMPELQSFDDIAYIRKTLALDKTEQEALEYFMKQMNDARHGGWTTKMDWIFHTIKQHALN
H1047R PIK3CA enzyme, sequence (P27986 whole entry partner): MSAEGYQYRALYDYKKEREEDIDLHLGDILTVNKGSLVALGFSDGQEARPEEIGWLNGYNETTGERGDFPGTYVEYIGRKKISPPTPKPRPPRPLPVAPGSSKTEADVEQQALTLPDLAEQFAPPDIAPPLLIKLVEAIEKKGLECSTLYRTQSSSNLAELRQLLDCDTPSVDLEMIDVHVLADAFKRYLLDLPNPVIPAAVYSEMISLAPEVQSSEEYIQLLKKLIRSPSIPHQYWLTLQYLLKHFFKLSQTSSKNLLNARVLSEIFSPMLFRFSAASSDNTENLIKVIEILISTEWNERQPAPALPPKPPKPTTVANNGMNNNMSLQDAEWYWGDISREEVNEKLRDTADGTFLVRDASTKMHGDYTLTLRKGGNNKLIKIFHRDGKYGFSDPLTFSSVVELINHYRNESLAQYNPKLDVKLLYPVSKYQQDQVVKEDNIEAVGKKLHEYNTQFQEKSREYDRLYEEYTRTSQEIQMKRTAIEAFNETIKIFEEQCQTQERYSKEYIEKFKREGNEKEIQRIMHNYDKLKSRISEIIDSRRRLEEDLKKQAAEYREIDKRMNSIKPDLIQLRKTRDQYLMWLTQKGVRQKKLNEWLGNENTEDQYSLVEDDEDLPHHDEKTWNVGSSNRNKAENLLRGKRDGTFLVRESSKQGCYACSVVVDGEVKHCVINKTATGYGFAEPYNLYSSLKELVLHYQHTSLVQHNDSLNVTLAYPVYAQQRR

The assay has as its target H1047R PIK3CA enzyme (Homo sapiens, UniProt P42336, H1047R). As to the kind of experiment: ADP-Glo Biochemical PIK3CA Kinase Assay. Background: In ADP-Glo the light output rises with the ADP produced.
On to `O=C(Nc1cc(-c2cnn(S(=O)(=O)C(F)F)c2)cc2c1[C@H](c1cc(F)ccc1Cl)NC2=O)c1cc(F)cc(C(F)(F)F)c1` [Compound I-2093], for which the IC50 (as a rule, the midpoint of a concentration-inhibition curve) was ≤ 0.1 µM.

With `O=C(NCCC(O)C(F)(F)F)c1cccc2c1C(c1cc(F)ccc1Cl)NC2=O` (centres unmarked) [Compound I-2094], the IC50 was 10 to 100 µM.

In turn, `Cn1c(Cl)cc(C(=O)Nc2cc(Br)cc3c2[C@H](c2cc(F)ccc2Cl)NC3=O)cc1=O` [Compound I-2095] returned an IC50 of 10 to 100 µM.

As for `Cn1c(Cl)cc(C(=O)Nc2cc(Br)cc3c2[C@@H](c2cc(F)ccc2Cl)NC3=O)cc1=O` [Compound I-2096], the IC50 lay in the range of 10 to 100 µM.

In the case of `O=C1NC(c2cc(F)ccc2Cl)c2c(C#Cc3ccccc3)cccc21` (centres unmarked) [Compound I-2097], the IC50 was 10 to 100 µM.

On to `CN(C)S(=O)(=O)c1cc(-c2ccc3ncnn3c2)cc2c1[C@@H](c1cc(F)ccc1Cl)NC2=O` [Compound I-2098], for which the IC50 lay in the range of 10 to 100 µM.

`CN(C)S(=O)(=O)c1cc(-c2ccc3ncnn3c2)cc2c1[C@H](c1cc(F)ccc1Cl)NC2=O` [Compound I-2099] displayed an IC50 of 10 to 100 µM.

In the case of `NS(=O)(=O)c1cc(-c2ccc3ncnn3c2)cc2c1[C@@H](c1cc(F)ccc1Cl)NC2=O` [Compound I-2100], the IC50 fell in the range of 10 to 100 µM.

Consider `NS(=O)(=O)c1cc(-c2ccc3ncnn3c2)cc2c1[C@H](c1cc(F)ccc1Cl)NC2=O` [Compound I-2101], for which the IC50 was 10 to 100 µM.

In turn, `O=C1NC(c2cc(F)ccc2Cl)c2c(/C=C/c3ccccc3)cccc21` (centres unmarked) [Compound I-2106] registered an IC50 of 10 to 100 µM.

In turn, `Cc1cc(=O)[nH]cc1C(=O)Nc1cc(Br)cc2c1[C@@H](c1cc(F)ccc1Cl)NC2=O` [Compound I-2107] showed an IC50 of 10 to 100 µM.

For the compound `Cc1cc(=O)[nH]cc1C(=O)Nc1cc(Br)cc2c1[C@H](c1cc(F)ccc1Cl)NC2=O` [Compound I-2108], the IC50 was in the range of 10 to 100 µM.

On to `O=C(Nc1cccc2c1C(CC1CCCC1)NC2=O)c1cc(F)cc(C(F)(F)F)c1` (centres unmarked) [Compound I-2109], for which the IC50 was in the range of 1 to 10 µM.

The compound `O=C1NC(c2cc(F)ccc2Cl)c2c(NC(=O)N3CCn4c(nnc4C(F)(F)F)C3)cccc21` (centres unmarked) [Compound I-2111] displayed an IC50 of 10 to 100 µM.

`O=C(Nc1cccc2c1C(c1cc(F)ccc1Cl)NC2=O)c1ncc(Br)s1` (centres unmarked) [Compound I-2112] came in with an IC50 of 10 to 100 µM.

In the case of `CC(C)(O)C12CC(C(=O)Nc3cccc4c3C(c3cc(F)ccc3Cl)NC4=O)(C1)C2` (centres unmarked) [Compound I-2117], the IC50 was 10 to 100 µM.

In turn, `O=C1NC(c2cc(F)ccc2Cl)c2c(NC(=O)C34CC(C(O)(C5CC5)C5CC5)(C3)C4)cccc21` (centres unmarked) [Compound I-2118] had an IC50 of 10 to 100 µM.

The compound `O=C(CCC(F)(F)F)Nc1cccc2c1[C@@H](c1cc(F)ccc1Cl)NC2=O` [Compound I-2119] came in with an IC50 of 10 to 100 µM.

The compound `O=C(CCC(F)(F)F)Nc1cccc2c1[C@H](c1cc(F)ccc1Cl)NC2=O` [Compound I-2120] yielded a half-inhibitory concentration (IC50) of 10 to 100 µM.

The compound `O=C(Nc1cc(OCC2CC2)cc2c1C(c1cc(F)ccc1Cl)NC2=O)c1cc(F)cc(C(F)(F)F)c1` (centres unmarked) [Compound I-2134] had an IC50 of 0.1 to 0.5 µM.

In the case of `O=C1NC(c2cc(F)ccc2Cl)c2c1cc(-c1cnn(C(F)F)c1)cc2-c1cn2ccc(C(F)(F)F)cc2n1` (centres unmarked) [Compound I-2135], the IC50 lay in the range of 1 to 10 µM.

Compound `O=C1NC(c2cc(F)ccc2Cl)c2c(NC(=O)C3CCCC(O)(C(F)(F)F)C3)cccc21` (centres unmarked) [Compound I-2136] displayed an IC50 of 10 to 100 µM.

For the compound `O=C(Nc1cc(-c2ccnc(C(=O)O)c2)cc2c1C(c1cc(F)ccc1Cl)NC2=O)c1cc(F)cc(C(F)(F)F)c1` (centres unmarked) [Compound I-2137], the IC50 was ≤ 0.1 µM.

`C[C@@H](CCC(F)(F)F)C(=O)Nc1cccc2c1[C@H](c1cc(F)ccc1Cl)NC2=O` [Compound I-2138] returned a 50% inhibitory concentration (IC50) of 1 to 10 µM.

Consider `C[C@H](CCC(F)(F)F)C(=O)Nc1cccc2c1[C@H](c1cc(F)ccc1Cl)NC2=O` [Compound I-2139], for which the IC50 lay in the range of 10 to 100 µM.

`C[C@H](CCC(F)(F)F)C(=O)Nc1cccc2c1[C@@H](c1cc(F)ccc1Cl)NC2=O` [Compound I-2140] returned an IC50 of 10 to 100 µM.

On to `C[C@@H](CCC(F)(F)F)C(=O)Nc1cccc2c1[C@@H](c1cc(F)ccc1Cl)NC2=O` [Compound I-2141], for which the concentration for half-maximal inhibition (IC50) is 10 to 100 µM.

Compound `O=C1N[C@H](c2cc(F)ccc2Cl)c2c(NC(=O)[C@@H]3CCCCN3)cc(-c3ccc4ncnn4c3)cc21` [Compound I-2146] yielded an IC50 of 10 to 100 µM.

`O=C1N[C@@H](c2cc(F)ccc2Cl)c2c(NC(=O)[C@H]3CCCCN3)cc(-c3ccc4ncnn4c3)cc21` [Compound I-2147]: the IC50 was in the range of 10 to 100 µM.

Turning to `O=C(Nc1cc(-n2ccnn2)cc2c1C(c1cc(F)ccc1Cl)NC2=O)c1cc(F)cc(C(F)(F)F)c1` (centres unmarked) [Compound I-2148], the IC50 was ≤ 0.1 µM.

In turn, `O=C(Nc1cccc2c1[C@H](CC1CCCC1)NC2=O)c1cc(F)cc(C(F)(F)F)c1` [Compound I-2153] gave an IC50 of 1 to 10 µM.

Compound `O=C(Nc1cccc2c1[C@@H](CC1CCCC1)NC2=O)c1cc(F)cc(C(F)(F)F)c1` [Compound I-2154] gave a half-maximal inhibitory concentration (IC50) of 1 to 10 µM.

Compound `O=C1NC(c2cc(F)ccc2Cl)c2c(NC(=O)C3CCC(O)(C(F)(F)F)CC3)cccc21` (centres unmarked) [Compound I-2155] displayed an IC50 of 10 to 100 µM.

Regarding `O=C(Nc1cc(Br)cc2c1C(c1cc(F)cc(F)c1)NC2=O)c1cc(F)cc(F)c1` (centres unmarked) [Compound I-2156], the IC50 is 1 to 10 µM.

Take `O=C1NC(c2cc(F)ccc2Cl)c2c(NC3CCCNC3)cc(-c3ccc4ncnn4c3)cc21` (centres unmarked) [Compound I-2158, 6-([1,2,4]triazolo[1,5-a]pyridin-6-yl)-3-(2-chloro-5-fluorophenyl)-4-(piperidin-3-ylamino)isoindolin-1-one]: the 50% inhibitory concentration (IC50) lay within 10 to 100 µM.

`O=C(Nc1cc(-c2cnn(C(F)F)c2)cc2c1C(c1cc(F)cc(F)c1)NC2=O)c1cc(F)cc(F)c1` (centres unmarked) [Compound I-2161] displayed an IC50 of 0.1 to 0.5 µM.

`O=C1N[C@@H](c2cc(F)ccc2Cl)c2c(NC(=O)N3C[C@](O)(CO)c4ccccc43)cccc21` [Compound I-2166] returned an IC50 of 1 to 10 µM.

On to `O=C1N[C@H](c2cc(F)ccc2Cl)c2c(NC(=O)N3C[C@@](O)(CO)c4ccccc43)cccc21` [Compound I-2167], for which the IC50 is 10 to 100 µM.

Consider `O=C1N[C@H](c2cc(F)ccc2Cl)c2c(NC(=O)N3C[C@](O)(CO)c4ccccc43)cccc21` [Compound I-2168], for which the IC50 was in the range of 10 to 100 µM.

In the case of `O=C1NC(c2cc(F)ccc2Cl)c2c(NC(=O)N3CC(CO)C(C(F)(F)F)C3)cccc21` (centres unmarked) [Compound I-2181], the IC50 lay within 10 to 100 µM.

Turning to `O=C1NC(c2cc(F)ccc2Cl)c2c(NC(=O)N3CCc4ccncc43)cccc21` (centres unmarked) [Compound I-2182], the IC50 lay in the range of 10 to 100 µM.

Regarding `O=C1N[C@@H](c2cc(F)ccc2Cl)c2c(Nc3cn[nH]c3)cc(Br)cc21` [Compound I-2184], the IC50 lay in the range of 10 to 100 µM.

Turning to `O=C1NC(c2cc(F)ccc2Cl)c2c(C#Cc3cc(F)cc(C(F)(F)F)c3)cccc21` (centres unmarked) [Compound I-2187], the IC50 fell in the range of 10 to 100 µM.

For `O=C(Nc1ccccc1)c1cccc2c1C(c1cc(F)ccc1Cl)NC2=O` (centres unmarked) [Compound I-2188], the half-maximal inhibitory concentration (IC50) lay in the range of 10 to 100 µM.

For the compound `O=C(Nc1cccc(C(F)(F)F)c1)c1cccc2c1C(c1cc(F)ccc1Cl)NC2=O` (centres unmarked) [Compound I-2189], the concentration for half-maximal inhibition (IC50) lay within 1 to 10 µM.

Compound `O=C1NC(c2cc(F)ccc2Cl)c2c(NC(=O)N3CCc4cnccc43)cccc21` (centres unmarked) [Compound I-2191] displayed an IC50 of 1 to 10 µM.

`CCC(CC(=O)Nc1cccc2c1C(c1cc(F)ccc1Cl)NC2=O)C(C)C(F)(F)F` (centres unmarked) [Compound I-2193] showed an IC50 of 1 to 10 µM.
